Measurements: patent publication US20240358693A1, “METHODS OF TREATING PAIN” (Aisa Pharma, Inc., priority 2023, published 2024)

Test system: participants with SSc-RP
Assay: Scleroderma Health Assessment Questionnaire (SHAQ): disability indices and visual analog scales
Type: in vivo, human
Conditions: Part A
Text: The standard, validated, patient reported outcome measures tool for SSc patients, the Scleroderma Health Assessment Questionnaire (SHAQ), will be used to assess the participant qualify of life. Details are attached in the Appendix. The participant quality of life will be scored, and a disability index calculated for each questionnaire completed by the patient at Screening and each in-clinic visit. The absolute change in participant quality of life from baseline to the end of each dosing period will be calculated similar to frequency data as before.
The SHAQ includes a Raynaud's VAS, which will be reported at screening and each in-clinic visit. The absolute change in Raynaud-VAS, assessed by the participants response to the SHAQ question ‘In the past 7 days, how much have your Raynaud's interfered with your daily activities?’ at baseline and the end of each dosing period will be calculated similar to frequency data as before.
The SHAQ is used to calculate a Disability Index to assess the participant qualify of life. The eight categories assessed by the Disability Index are 1) dressing and grooming, 2) arising, 3) eating, 4) walking, 5) hygiene, 6) reach, 7) grip, and 8) common daily activities. For each of these categories, patients report the amount of difficulty they have in performing two or three specific activities.
There are four possible responses for the Disability Index questions: • Without any difficulty=0 • With some difficulty=1 • With much difficulty=2 • Unable to do=3. • The highest score reported by the patient for any component question of the eight categories determines the score for that category. • If a component question is left blank or the response is too ambiguous to assign a score, then the score for that category is determined by the remaining completed question(s). • If all component questions are blank or if more than one answer is given, then follow up with the respondent is required. • If the respondent's mark is between the response columns, then move it to the closest one. If it's directly between the two, move it to the higher one.
Each of the disability items on the SHAQ has a companion aids/devices variable that is used to record what type(s) of assistance, if any, the participant uses for his/her usual activities. These variables (see below) are coded as follows: • 0=No assistance is needed. • 1=A special device is used by the patient in his/her usual activities. • 2=The patient usually needs help from another person. • 3=The patient usually needs BOTH a special device AND help from another person.
The scoring variables and scoring rules permit the computation of two disability indices, the Standard Disability Index and the Alternative Disability Index.
This question results in a new set of category scores that are computed by adjusting the score for each category, if necessary, based on the patient's use of an aid or device or assistance for that category. If either devices and/or help from another person are checked for a category, the score is set to “2”, unless the score is already “3” (i.e., scores of “0” or “1” are increased to “2”). For example, if the highest score for the dressing category is “1”, and the patient says they use a device for dressing, the computed category score would be “2”. The sum of the computed categories scores is then calculated and divided by the number of categories answered. This gives a score in the 0 to 3 range.
The aid and device variables are not used to calculate the alternative disability index; it is calculated by adding the scores for each of the categories and dividing by the number of categories answered. This gives a score in the 0 to 3 range.
The standard, validated, patient reported outcome measures tool for SSc patients, the SHAQ, was collected at the time points specified in the study schedules (FIG. 2 and FIGS. 4A and 4B) to assess the participant's quality of life. The SHAQ included a Raynaud's VAS that will also be reported separately.

[1] = Modified ITT, dose Cilnidipine 20 mg, or 20 mg + Tadalafil 5 mg
[2] = PP Population, sensitivity analysis, Pooled Cilnidipine 10 mg and Cilnidipine 10 mg + Tadalafil 5 mg
[3] = PP Population, sensitivity analysis, Pooled Cilnidipine 20 mg and Cilnidipine 20 mg + Tadalafil 5 mg
[4] = PP Population, sensitivity analysis, cilnidipine 10 mg and/or tadalafil 5 mg as labelled

Compound: COCCOC(=O)C1=C(C)NC(C)=C(C(=O)OC/C=C/c2ccccc2)C1c1cccc([N+](=O)[O-])c1 (stereo not shown) [Cilnidipine, cilnidipine]
- SHAQ Finger Ulcers, In Clinic Visit (Day 12), Mean [1]: 0.867
- SHAQ Finger Ulcers, In Clinic Visit (Day 12), Median [1]: 0.700
- SHAQ Standard disability index, Baseline, Mean [1]: 0.250
- SHAQ Standard disability index, Baseline, Median [1]: 0.375
- SHAQ Standard disability index, In Clinic Visit (Day 12), Mean [1]: 0.125
- SHAQ Standard disability index, In Clinic Visit (Day 12), Median [1]: 0.125
- SHAQ Visual Analog Scale-Breathing Problems, Baseline, Mean [1]: 1.133
- SHAQ Visual Analog Scale-Breathing Problems, Baseline, Median [1]: 1.200
- SHAQ Visual Analog Scale-Breathing Problems, In Clinic Visit (Day 12), Mean [1]: 0.300
- SHAQ Visual Analog Scale-Breathing Problems, In Clinic Visit (Day 12), Median [1]: 0.400
- SHAQ Visual Analog Scale-Intestinal Problems, Baseline, Mean [1]: 0.833
- SHAQ Visual Analog Scale-Intestinal Problems, Baseline, Median [1]: 1.000
- SHAQ Visual Analog Scale-Intestinal Problems, In Clinic Visit (Day 12), Mean [1]: 1.133
- SHAQ Visual Analog Scale-Intestinal Problems, In Clinic Visit (Day 12), Median [1]: 1.300
- SHAQ Visual Analog Scale-Pain, Baseline, Mean [1]: 2.167
- SHAQ Visual Analog Scale-Pain, Baseline, Median [1]: 1.500
- SHAQ Visual Analog Scale-Pain, In Clinic Visit (Day 12), Mean [1]: 1.067
- SHAQ Visual Analog Scale-Pain, In Clinic Visit (Day 12), Median [1]: 0.700
- SHAQ Visual Analog Scale-Raynaud's, Baseline, Mean [1]: 2.300
- SHAQ Visual Analog Scale-Raynaud's, Baseline, Median [1]: 2.500
- SHAQ Visual Analog Scale-Raynaud's, In Clinic Visit (Day 12), Mean [1]: 1.033
- SHAQ Visual Analog Scale-Raynaud's, In Clinic Visit (Day 12), Median [1]: 1.100
- SHAQ alternative disability index, Baseline, Mean [1]: 0.208
- SHAQ alternative disability index, Baseline, Median [1]: 0.250
- SHAQ alternative disability index, In Clinic Visit (Day 12), Mean [1]: 0.125
- SHAQ alternative disability index, In Clinic Visit (Day 12), Median [1]: 0.125
- SHAQ Alternative Disability Index: Baseline, Mean [2]: 0.458
- SHAQ Alternative Disability Index: Baseline, Median [2]: 0.250
- SHAQ Alternative Disability Index: Change from Baseline (Day 12), Mean [2]: 0.021
- SHAQ Alternative Disability Index: Change from Baseline (Day 12), Median [2]: 0.000
- SHAQ Alternative Disability Index: In-Clinic Visit (Day 12), Mean [2]: 0.479
- SHAQ Alternative Disability Index: In-Clinic Visit (Day 12), Median [2]: 0.250
- SHAQ Alternative Disability Index: Percent Change from Baseline (Day 12), Mean [2]: 28.11%
- SHAQ Alternative Disability Index: Percent Change from Baseline (Day 12), Median [2]: −10.00%
- SHAQ Alternative Disability Index: Baseline, Mean [3]: 0.453
- SHAQ Alternative Disability Index: Baseline, Median [3]: 0.250
- SHAQ Alternative Disability Index: Change from Baseline (Day 12), Mean [3]: −0.036
- SHAQ Alternative Disability Index: Change from Baseline (Day 12), Median [3]: −0.063
- SHAQ Alternative Disability Index: In-Clinic Visit (Day 12), Mean [3]: 0.417
- SHAQ Alternative Disability Index: In-Clinic Visit (Day 12), Median [3]: 0.250
- SHAQ Alternative Disability Index: Percent Change from Baseline (Day 12), Mean [3]: 13.40%
- SHAQ Alternative Disability Index: Percent Change from Baseline (Day 12), Median [3]: −18.13%
- SHAQ Visual Analogue Scale - Breathing Problems: Baseline, Mean [4]: 1.875
- SHAQ Visual Analogue Scale - Breathing Problems: Baseline, Median [4]: 0.000
- SHAQ Visual Analogue Scale - Breathing Problems: Change from Baseline (Day 12), Mean [4]: −0.300
- SHAQ Visual Analogue Scale - Breathing Problems: Change from Baseline (Day 12), Median [4]: 0.000
- SHAQ Visual Analogue Scale - Breathing Problems: In-Clinic Visit (Day 12), Mean [4]: 1.575
- SHAQ Visual Analogue Scale - Breathing Problems: In-Clinic Visit (Day 12), Median [4]: 0.000
- SHAQ Visual Analogue Scale - Breathing Problems: Percent Change from Baseline (Day 12), Mean [4]: −16.00%
- SHAQ Visual Analogue Scale - Breathing Problems: Percent Change from Baseline (Day 12), Median [4]: −16.00%
- SHAQ Visual Analogue Scale - Finger Ulcers: Baseline, Mean [4]: 0.700
- SHAQ Visual Analogue Scale - Finger Ulcers: Baseline, Median [4]: 0.500
- SHAQ Visual Analogue Scale - Finger Ulcers: Change from Baseline (Day 12), Mean [4]: −0.425
- SHAQ Visual Analogue Scale - Finger Ulcers: Change from Baseline (Day 12), Median [4]: −0.350
- SHAQ Visual Analogue Scale - Finger Ulcers: In-Clinic Visit (Day 12), Mean [4]: 0.275
- SHAQ Visual Analogue Scale - Finger Ulcers: In-Clinic Visit (Day 12), Median [4]: 0.000
- SHAQ Visual Analogue Scale - Finger Ulcers: Percent Change from Baseline (Day 12), Mean [4]: −69.44%
- SHAQ Visual Analogue Scale - Finger Ulcers: Percent Change from Baseline (Day 12), Median [4]: −69.44%
- SHAQ Visual Analogue Scale - Intestinal Problems: Baseline, Mean [4]: 2.975
- SHAQ Visual Analogue Scale - Intestinal Problems: Baseline, Median [4]: 2.550
- SHAQ Visual Analogue Scale - Intestinal Problems: Change from Baseline (Day 12), Mean [4]: −1.875
